Measurements from US8609729B2, “Method for treating macular degeneration” (Sucampo AG, priority 2009, dated 2013).

Assays:
Assay type in all cases: cell-based
[1] = system: Human retinal pigment epithelium cells (ARPE-19 cells); assay: Trans-Epithelial Resistance (TER) of ARPE-19 cells treated with tert-butyl hydroperoxide (tBH); settings: 100 nM Compound A plus 100 μM tBH; TER at 0, 6, 18, 24 and 48 hours; FIG. 1
Protocol: (§1) Human retinal pigment epithelium cells (ARPE-19 cells, purchased from American Type Culture Collection (ATCC)) were used in the study. ARPE-19 cells were grown on Corning Transwell 0.4 μm pore size filters (Corning Incorporated, NY, USA) in Dulbecco's modified Eagles medium containing 10% fetal calf serum. Trans-Epithelial Resistance (TER) of the cultured cells was determined using an EVOM volt-ohm meter. The TER of the cultured cells was determined by subtracting the resistance value measured with the filter alone from the value measured with the cultured cells.
The cells were grown until they reached a TER of approximately 50 Ohm/1.2 cm^2. They were then treated with 100 μM tert-butyl hydroperoxide (tBH) in 0.1% decane, 100 nM Compound A (isopropyl unoprostone, i.e. 13,14-dihydro-15-keto-20-ethyl-PGF2α isopropyl ester) in DMSO (0.1% final DMSO), or a combination of tBH plus Compound A. TER was determined at 0, 6, 18, 24 and 48 hours after the treatment.

[2] = system: Human retinal pigment epithelium cells (ARPE-19 cells); assay: Barrier function: passage of 3,000 Dalton FITC-labeled dextran from apical to basolateral media of tBH-treated ARPE-19 cells; settings: 100 nM Compound A plus 100 μM tBH; dextran added at 20 hours, fluorescence at 44 hours; FIG. 2
Protocol: as §1
ARPE-19 cells grown until they reached a TER of approximately 50 Ohm/1.2 cm^2 were treated with 100 μM tBH in 0.1% decane, 100 nM Compound A in DMSO (0.1% final DMSO), or a combination of tBH plus Compound A (initial treatment). At 20 hours after the initial treatment, 3,000 Dalton FITC-labeled dextran was added at a concentration of 0.1 mg/ml to the apical surface of the cell culture and the culture was further incubated. Fluorescence of the media bathing the basolateral surface was then measured at 44 hours. Wavelengths for FITC were 494 ex/518 em.

[3] = system: Human retinal pigment epithelium cells (ARPE-19 cells); assay: Protection from light induced cell death in A2E containing RPE cells (WST-8 viability)
Protocol: Protection by Compound A from light induced cell death in pyridinium bis-retinoid (A2E) containing retinal pigment epithelium (RPE) cells
Human retinal pigment epithelium cells (ARPE-19 cells) were used in the study. ARPE-19 cells were maintained in DMEM/F12 medium (supplemented with 10% FBS and 1% Penicillin-Streptomycin Mixed Sol.) in 25 cm^2 or 75 cm^2 culture flask. For the experiment, the cells were seeded on multi-well chamber slides. After confirming the cells adhered to slide, the media were changed to pyridinium bis-retinoid (A2E) containing culture medium and the cells were cultured for 5-14 days The media were changed to phosphate buffered saline (containing A2E), and then the cells were exposed to blue light (430 nm) delivered from a halogen source for 20 min. Compound A dissolved in dimethyl sulfoxide was added 1 hr before the light: exposure (the final concentration was 10 and 50 nM). After the light exposure, the cells were cultured in the DMEM/F12 medium for 24 hours. The cells were then incubated in DMEM/F12 medium containing 10% WST-8 (without A2Z) for 4 hours. Absorbance at 450 nm was measured. An increase in the absorbance is indicative of cellular viability.

CCCCCCCC(=O)CC[C@@H]1[C@@H](C/C=C\CCCC(=O)OC(C)C)[C@@H](O)C[C@H]1O [Compound A, 13,14-dihydro-15-keto-20-ethyl-PGF2α isopropyl ester]
Effect on the loss of TER caused by tBH [1]: protected against the loss of TER caused by tBH
Effect on the loss of barrier function caused by tBH (passage of 3,000 Dalton fluorescent dextran) [2]: protected against the loss of barrier function caused by tBH
Effect on cell death induced by A2E/light exposure ([3]; 10 and 50 nM, A2E + blue light exposure): prevented cell death induced by A2E/light exposure
viability at 0.01 µM ([3]; Homo sapiens, ARPE-19, 10 nM, A2E + light exposure (430 nm, 20 min), compound added 1 hr before light, WST-8 after 24 hours): 90%
viability at 0.05 µM ([3]; Homo sapiens, ARPE-19, 50 nM, A2E + light exposure (430 nm, 20 min), compound added 1 hr before light, WST-8 after 24 hours): 89%
